Data from patent US8067669B2, “Method for inducing resistance to fungal infection in transgenic plants using plant defense peptides” (The Curators Of The University Of Missouri, priority 2000, dated 2011).

Tests used:
U. appendiculatus = test: Inhibition of germling (germinated uredospore) growth; type: cell-based, Uromyces appendiculatus; conditions: phage-peptide clones, ~250 germinated spores with 3×10^12 at 20 C overnight; listed as clone 19
From the text: Part D entails the generation of additional Sub-libraries by use of further rounds of biopanning including rounds 2, 3 and 4. Part B is repeated three times: • 1. For biopanning round 2, 4.2×10^11 TU phages from the 2nd Sub-library are used to produce Sub-library 3; • 2. For biopanning round 3, 5.6×10^11 TU phages amplified from the 2nd biopanning are used to produce Sub-library 4; and • 3. For biopanning round 4, 5.1×10^11 TU phages amplified from the 3rd biopanning are used to produce Sub-library 5. Colonies from biopanning-round 4 are picked, sequenced, and tested for inhibition of germling growth.
Part E entails testing for inhibition of uredospore growth. Incubate 30 ul of germinated spores (˜250) with 3×10^12 at 20 C overnight. Assess fungal germ tube growth (i.e. germling growth) and compare with water and f88, i.e. phage only without any display peptide, as controls.

P. capsici zoospores [1] = test: Encystment assay with phage-displayed peptides; type: cell-based, Phytophthora capsici; conditions: phage 2.5×10^9 virion; 20 minute incubation at room temperature
Procedure: Following binding, the pathogen is observed for alterations in its development or ability to infect a host. […] The range of phage concentrations can vary, but generally ranges between 1 to 10×10^9 virion/μl. A negative control containing no phage is included in each screening. After an incubation period of usually about 20 minutes at room temperature, the number of zoospores encysted at each phage concentration is determined. Using this method it is possible to rationally select peptides of defined character and evaluate them for species- and life stage-specific induction of receptor-mediated functional responses, such a zoospore encystment. Peptides found to interfere with the development of a pathogen can be used to prevent or limit infection of a host with the pathogen.
Selected phage clones were isolated according to Smith and Scott (Methods in Enzymology, 217:228-257, 1993), and twice purified using polyethylene glycol as described above with the exception that phage were resuspended in distilled water instead of TBS. The virion concentration was calculated by measuring the absorbance at A269 (Smith and Scott, Methods in Enzymology, 217:228-257, 1993). Water droplets of approximately 20 μl containing about 400 freshly released zoospores were incubated with phage at two-fold serial dilutions so that they contained phage-bearing peptides at concentrations of either 1×10^10, 5×10^9, 2.5×10^9 or 1.25×10^9 virion/μl of droplet. A negative control received no phage and was used to monitor the amount of spontaneous encystment in the zoospore population. After a 20 minute incubation at room temperature, the number of encysted zoospores was counted using a microscope at 100× magnification. The virion concentration of phage was calculated according to Smith and Scott (Methods in Enzymology, 217:228-257, 1993).

P. capsici zoospores [2] = test: Binding of phage-displayed peptides to zoospores (eluted phage titered as TU); set-up: species or system Phytophthora capsici; conditions: 5×10^10 TU phage with 200,000 zoospores, 30 minutes incubation
Procedure: An aliquot of 10^11 transducing units (TU) from the f8-1 library (Petrinko et al., Protein Engineering, 9:797-801, 1996) was added to 10^6 freshly released P. capsici zoospores at room temperature in 4 ml of 50 mM LiCl and incubated for 30 minutes at room temperature with gentle agitation. The same procedure was used for the 188-4 library except in some cases P. sojae zoospores were used (Soj clones). The zoospores containing the bound phage were washed 10 times in 150 μl of 50 mM LiCl and centrifuged at 1000×g for 45 seconds to remove unbound phage. After the tenth wash, the bound phage were eluted with 200 μl of elution buffer (0.1 N HCl, glycine sufficient to bring pH to 2.2, 1 mg/ml bovine serum albumin). […] Selective enrichment of the zoospore-binding phage was monitored by calculating the percent yield after each round of selection as described in Smith and Scott (Methods in Enzymology, 217:228-257, 1993). This was done by calculating the total phage (expressed as transducing units) that was applied to the zoospores and measuring the total output of phage (as transducing units) that was recovered from the zoospores and expressing the result as a percentage. […]
Phage vector was included as a control treatment. […] Phage eluted from the zoospore population were titered in E. coli K91BluKan cells and expressed as total transducing units. […]

P. capsici cysts = test: Binding of phage-displayed peptides to cysts (eluted phage titered as TU); set-up: species or system Phytophthora capsici; conditions: 5×10^10 TU phage

Sequence | level of encystment of P. capsici zoospores (P. capsici zoospores [1]) | further results
NHVSTLKTRHRLIPF (Random peptide insert) [Pp 19] |  | growth inhibition of U. appendiculatus (germlings) (U. appendiculatus): inhibition
AAPDLQDAM (Random peptide insert) [Pc56] | low levels of encystment | 
AVSPNVHDG (Random peptide insert) [Pc42] | high levels of encystment | 
AGLTSPNDM (Random peptide insert) [Pc15B] | low levels of encystment | 
AEHQNSAGP (Random peptide insert) [Pc45] | low levels of encystment | phage eluted from zoospores (P. capsici zoospores [2]): about 50,000 TU
ADITDPMGA (Random peptide insert) [Pc64] | high levels of encystment | 
ADPPRTVST (Random peptide insert) [Pc78] | high levels of encystment | 
ADRPSMSPT (Random peptide insert) [Pc87] | high levels of encystment | phage eluted from zoospores (P. capsici zoospores [2]): More than 10^7 TU; phage eluted from cysts (P. capsici cysts): less than 10^4 TU
